Measured values: patent US5968920A, “Compounds having a benzisoselen-azoline and -azine structure, method for preparing same and therapeutic uses thereof” (Oxis Isle of Man, Limited, priority 1994, dated 1999)

Experiments:
[1] = Glutathione peroxidase activity, t-BuOOH as hydroperoxide; assay type: biochemical; conditions: compound 20 μM, pH = 7.3, 37° C., [GSH] = 2 mM
Procedure: To 1.5 ml of HEPES buffer, 50 mM, pH=7.3, containing 0.2 mM of DTPA, 0.144 mM of NADPH, 2.2 mM of reduced glutathione and 1.1 U/ml of glutathione disulfide reductase, pre-equilibrated for 2 minutes at 37° C., 100 μl of an ethanolic mother solution of the compound to be tested or 100 μl of absolute ethanol (blank) was added. Each compound was tested at a final concentration of 20 μM.
Subsequently, 50 μl of the following was added:
tertiobutyl hydroperoxide (t-BuOOH), 6.6 mM in ultrapure water;
or the hydroperoxide of linoleic acid (18:2-OOH) prepared using soya lipoxygenase (see M. O. Funk et al., Lipids, (1976), 11, pp 113-117), 3.3 mM in a water/methanol mixture, 85/15 (V/V). The glutathione peroxidase activity was measured at 37° C. by measuring the reduction in absorbance at 340 nm over 5 minutes. The initial enzymatic rate or activity was proportional to the slope of the plot of absorbance against time.
They are expressed in nmoles of hydroperoxide reduced per minute.

[2] = tested on: von Willebrandt factor (vWf); assay: Protection of endothelial cells against interleukin 1 (von Willebrandt factor release); assay type: cell-based; conditions: Homo sapiens, Endothelial cell; compound 10 μM; IL-1α 50 U/ml; 4 h; compound present or not during IL-1 incubation; read-out: inhibition of increase in vWf liberation induced by IL-1
Procedure: (§1) Human endothelial cells were cultivated under the same conditions as those described for Example 18.
When the cells were near confluence, they were incubated for one hour in the presence or absence of the following compounds: BXT-51072, BXT-51077, each of these compounds being at 10 μM in culture medium containing 2% of foetal calf serum , all other conditions being the same. The cells were then washed three times with a PBS buffer. The cells which had not been pretreated by a compound were incubated in the presence or absence (control) of interleukin 1α (IL-1α), at 50 U/ml, in the same culture medium. […] After four hours of incubation, the von Willebrandt factor (vWf) in the culture medium was measured.

P-selectin = assay: Endothelial expression of P-selectin induced by TNF-α (ELISA); assay type: cell-based; conditions: Homo sapiens, Endothelial cell; compound 10 μM; TNF-α 1 ng/ml; 3 to 4 hours; read-out: inhibition of TNF-α induced increase in expression of P-selectin
Procedure: Human endothelial cells were cultivated under the same conditions as those described for Example 18. When the cells were near confluence, they were incubated for one hour in the presence or absence of BXT-51072 at 10 μM in culture medium containing 2% of foetal calf serum, all other conditions being the same. The cells were then washed three times with a PBS buffer. The cells which had not been pretreated by a compound were incubated in the presence or absence (control) of TNF-α, at 1 ng/ml, in the same culture medium. The pretreated cells were incubated under the same conditions, but the medium also contained BXT-51072 at 10 μM. After 3 to 4 hours of incubation, the cells were washed with a PBS buffer and fixed with 2% formaldehyde in a PBS buffer.

endothelial cells [3] = assay: Endothelial changes induced by PMN and TNF-α (von Willebrandt factor release); assay type: cell-based, human; conditions: BXT compounds 10 μM, pentoxifylline 50 μM; TNF-α 1 ng/ml; 3.5 h
Procedure: as §1
(§2) When the cells were near confluence, they were incubated for one hour in the presence or absence of the following compounds: BXT-51072, BXT-51077 or pentoxifylline. Compounds BXT-51072 and BXT-51077, each at 10 μM, and the pentoxifylline, at 50 μM, were incorporated in culture medium containing 2% of foetal calf serum, all other conditions being the same. […] Myeloperoxidase (MPO), an enzyme specifically contained in PMNs, was then measured in the cell lysates obtained to evaluate adhesion of the PMNs on the endothelial cells. The von Willebrandt factor (vWf) liberated in the culture medium by the endothelial cells was measured after three and a half hours of incubation, as a label of the changes in the cells.
(§3) Incubation of the endothelial cells in the presence of PMN and TNF-α led to a very significant increase in the quantity of MPO and vWf with respect to the respective controls (PMN alone, and endothelial cells alone respectively), meaning the adhesion of activated PMNs to the endothelial cells and changes in the latter.
(§4) They are expressed as the percentage inhibition by referring the MPO and vWf measurements to the respective concentrations of MPO and vWf determined when the endothelial cells were incubated with TNF-α and PMNs.

interleukin 8 (IL-8) = assay: Endothelial production of interleukin 8 induced by TNF-α; assay type: cell-based, human; conditions: Homo sapiens, 4 h, read-out: inhibition of IL-8 production induced by TNF-α
Procedure: as §1
When the cells were near confluence, they were incubated for one hour in the presence or absence of the following compounds: BXT-51072, BXT-51077 or ebselen. Each of these compounds was incorporated into culture medium containing 2% of foetal calf serum at 10 μM, all other conditions being the same. […] After four hours of incubation, the interleukin 8 (IL-8) in the culture medium was measured.

endothelial cells [4] = assay: Adhesion of PMN to endothelial cells induced by TNF-α (myeloperoxidase); assay type: cell-based, human; conditions: compound 10 μM vs pentoxifylline 50 μM; TNF-α 1 ng/ml
Procedure: as §1, §2, §3, §4

CC1(C)CN[Se]c2ccccc21 [BXT-51072, 4,4-dimethyl-benzisoselenazine]
Glutathione peroxidase activity, t--BuOOH [1]: 27.4 nmoles of hydroperoxide reduced/min | inhibition at 10 µM [2]: > 70% | inhibition at 10 µM (P-selectin): > 90% | protection of endothelial cells against the deleterious effects of activated PMNs (vWf) (endothelial cells [3]): protect endothelial cells against the deleterious effects of activated PMNs | inhibition at 10 µM (interleukin 8 (IL-8)): ≥ 70% | inhibition of the adhesion of PMN induced by TNF-α (MPO) (endothelial cells [4]): inhibit the adhesion of PMN induced by TNF-α, much more effectively than pentoxifylline
